Among the test systems are K562; COLO 205; ACHN; CAKI-1; OVCAR-5; NCI/ADR-RES; NCI-H522; LOX IMVI; UO-31; SN12C; MDA-MB-435; DU-145; SK-OV-3; SW-620; MDA-MB-231; OVCAR-3; CCRF-CEM; SF-268; SF-295.
What all share (assay): DTP human tumour cell line panel, 48 h

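Exposure lasted 48 hours, with cells grown in 96-well plates and compounds tested at five concentrations. At the GI50, growth is halved.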 Calls of active or inactive are those of the source. Cut-off read from the data, not from the text of the source: active = GI50 up to about 1.1 µM and inactive = higher.

The term GI50 denotes the concentration giving 50% growth inhibition. With `COc1cc(NCc2ccc3oc(=O)c(-c4ccccc4)nc3c2)cc(OC)c1OC`, the GI50 in the assay with K562, in the assay with COLO 205, in the assay with ACHN, with CAKI-1, in the assay on OVCAR-5 and in the assay with NCI/ADR-RES was > 10 µM (inactive) each time. The GI50 in the assay with NCI-H522, with LOX IMVI, in the assay on UO-31, in the assay on SN12C, in the assay on MDA-MB-435 and in the assay on DU-145 was > 10 µM (inactive) throughout. Besides, the GI50 in the assay with SK-OV-3, with SW-620, in the assay on MDA-MB-231, with OVCAR-3, in the assay with CCRF-CEM and in the assay on SF-268 was > 10 µM (inactive) each time. In addition, the GI50 in the assay with SF-295 was > 10 µM (inactive).

As for `Cn1cncc1CC1COC(=O)C1C(O)c1ccccc1` (stereo not drawn), the GI50 in the assay with K562, with COLO 205, in the assay with ACHN, with CAKI-1, with OVCAR-5 and in the assay with NCI/ADR-RES was > 100 µM (inactive) throughout. For the same molecule, the GI50 with NCI-H522, with LOX IMVI, with SN12C, in the assay with MDA-MB-435, with DU-145 and in the assay on SK-OV-3 was > 100 µM (inactive) each time. The GI50 with SW-620, in the assay with MDA-MB-231, with OVCAR-3, in the assay with CCRF-CEM, in the assay on SF-268 and in the assay on SF-295 was > 100 µM (inactive) each time.

Take `O=C(CCCCCCCCC(=O)N1C(=O)CC(=O)N(c2ccc(Cl)cc2)C1=S)N1C(=O)CC(=O)N(c2ccc(Cl)cc2)C1=S`: the GI50 with K562 was 17.5 µM (inactive); in the assay on COLO 205, 32.9 µM (inactive); in the assay with ACHN, 35.4 µM (inactive); with CAKI-1 it was > 100 µM (inactive); with OVCAR-5, > 100 µM (inactive); with NCI/ADR-RES it was 24.5 µM (inactive). Moreover, the GI50 in the assay with NCI-H522 was 29 µM (inactive); in the assay with LOX IMVI, 54.8 µM (inactive); in the assay with UO-31, 35.7 µM (inactive); with SN12C, > 100 µM (inactive); in the assay on MDA-MB-435, 58.1 µM (inactive); with DU-145, > 100 µM (inactive). In addition, the GI50 is 73.3 µM (inactive) with SK-OV-3; > 100 µM (inactive) in the assay with SW-620; 70.8 µM (inactive) in the assay with MDA-MB-231; 51.3 µM (inactive) in the assay with OVCAR-3; 30.9 µM (inactive) with CCRF-CEM; > 100 µM (inactive) with SF-268. In addition, the GI50 with SF-295 is 33 µM (inactive).

`CCN(CC)CCCNc1[nH]c2ccccc2c2nc3ccc(OC)cc3c1-2`: the GI50 in the assay on K562 was 1.27 µM (inactive); with COLO 205, 1.32 µM (inactive); with ACHN it was 4.27 µM (inactive); in the assay on CAKI-1, 2.71 µM (inactive); in the assay on OVCAR-5, 1.28 µM (inactive); in the assay on NCI/ADR-RES, 1.27 µM (inactive). Besides, the GI50 with NCI-H522 is 1.46 µM (inactive); with LOX IMVI, 1.11 µM (active); in the assay with UO-31, 4.01 µM (inactive); with SN12C, 2.1 µM (inactive); in the assay on MDA-MB-435, 1.6 µM (inactive); in the assay with DU-145, 2.64 µM (inactive). Also, the GI50 in the assay with SK-OV-3 was 3.08 µM (inactive); in the assay with SW-620, 0.828 µM (active); with MDA-MB-231 it was 1.54 µM (inactive); in the assay on OVCAR-3 it was 3.31 µM (inactive); in the assay on CCRF-CEM, 0.61 µM (active); in the assay on SF-268, 1.77 µM (inactive). Further, the GI50 with SF-295 was 1.17 µM (inactive).

With `COP(=O)(CC(=O)C1OC(OCc2ccccc2)C(OCc2ccccc2)C(OCc2ccccc2)C1OCc1ccccc1)OC` (stereo not drawn), the GI50 in the assay with K562 is 4.31 µM (inactive); in the assay with COLO 205 it was 3.78 µM (inactive); with ACHN, 5.71 µM (inactive); in the assay on CAKI-1, 4.7 µM (inactive); in the assay with OVCAR-5, 17.6 µM (inactive); in the assay with NCI/ADR-RES it was 4.16 µM (inactive). For the same molecule, the GI50 in the assay with NCI-H522 was 9.51 µM (inactive); with LOX IMVI it was 11 µM (inactive); in the assay with UO-31, 2.94 µM (inactive); with SN12C it was 3 µM (inactive); in the assay on MDA-MB-435, 5.38 µM (inactive); in the assay with DU-145, 22 µM (inactive). In addition, the GI50 with SK-OV-3 is 27.8 µM (inactive); with SW-620 it was 12.8 µM (inactive); in the assay with MDA-MB-231 it was 10.2 µM (inactive); with OVCAR-3 it was 8.87 µM (inactive); in the assay with CCRF-CEM, 4.76 µM (inactive); in the assay with SF-268, 12.8 µM (inactive). Also, the GI50 in the assay on SF-295 is 5.36 µM (inactive).

On to `COCCCNC(=O)C1=C(C)NC(C)=C(C(=O)NCCCOC)C1`, for which the GI50 in the assay on K562 was 46 µM (inactive); in the assay on COLO 205, > 100 µM (inactive); with ACHN it was > 100 µM (inactive); in the assay on CAKI-1, > 100 µM (inactive); in the assay with OVCAR-5 it was > 100 µM (inactive); in the assay on NCI/ADR-RES it was > 100 µM (inactive). The GI50 in the assay on NCI-H522 is 9.23 µM (inactive); in the assay on LOX IMVI, > 100 µM (inactive); with UO-31, 71.4 µM (inactive); with SN12C it was > 100 µM (inactive); in the assay on MDA-MB-435, > 100 µM (inactive); in the assay on DU-145, > 100 µM (inactive). For the same molecule, the GI50 in the assay on SK-OV-3, in the assay with SW-620, with MDA-MB-231, with OVCAR-3, in the assay with CCRF-CEM and in the assay on SF-268 was > 100 µM (inactive) throughout. Also, in the assay with SF-295, the GI50 is > 100 µM (inactive).

Take `COc1cc(C[C@H]2C(=O)OC[C@@H]2Cc2ccc(OC)c(OC)c2)cc(OC)c1`: the GI50 is 31.5 µM (inactive) with K562; 89.3 µM (inactive) in the assay on COLO 205; 31.2 µM (inactive) with ACHN; > 100 µM (inactive) in the assay on CAKI-1; > 100 µM (inactive) with OVCAR-5; 32.1 µM (inactive) in the assay on NCI/ADR-RES. Besides, the GI50 in the assay on NCI-H522 is 64.3 µM (inactive); in the assay with LOX IMVI it was 18.5 µM (inactive); in the assay on UO-31, 39.6 µM (inactive); with SN12C, > 100 µM (inactive); in the assay on MDA-MB-435 it was 55.7 µM (inactive); with DU-145, > 100 µM (inactive). For the same molecule, the GI50 with SK-OV-3 is > 100 µM (inactive); in the assay with SW-620 it was 70.6 µM (inactive); with MDA-MB-231, 93.3 µM (inactive); with OVCAR-3, 59.3 µM (inactive); in the assay on CCRF-CEM, 25.8 µM (inactive); with SF-268 it was > 100 µM (inactive). Besides, in the assay with SF-295, the GI50 is 88.1 µM (inactive).

For `CNC(=O)[C@H](Cc1ccccc1)NC(=O)N(CCC#N)CCN(C(=O)N[C@@H](Cc1ccccc1)C(=O)OC)c1ccccc1`, the GI50 in the assay with K562, in the assay with COLO 205, with ACHN, in the assay with CAKI-1, in the assay on OVCAR-5 and in the assay on NCI/ADR-RES was > 100 µM (inactive) throughout. Moreover, the GI50 in the assay with NCI-H522, in the assay on LOX IMVI, in the assay on UO-31, in the assay on MDA-MB-435, in the assay on DU-145 and in the assay on SK-OV-3 was > 100 µM (inactive) in each case. Besides, the GI50 in the assay on SW-620, in the assay with MDA-MB-231, in the assay on OVCAR-3, with CCRF-CEM, in the assay on SF-268 and with SF-295 was > 100 µM (inactive) each time.

Regarding `CN=C(n1ccnc1)n1ccnc1`, the GI50 in the assay with K562, with COLO 205, in the assay with CAKI-1, in the assay with OVCAR-5, in the assay with NCI/ADR-RES and in the assay with NCI-H522 was > 100 µM (inactive) each time. Also, the GI50 in the assay with LOX IMVI, in the assay with UO-31, in the assay with SN12C, with MDA-MB-435, in the assay on DU-145 and in the assay with SK-OV-3 was > 100 µM (inactive) throughout. The GI50 with SW-620, in the assay on MDA-MB-231, with OVCAR-3, with CCRF-CEM and with SF-268 was > 100 µM (inactive) each time.

Take `C[C@]1(CO)[C@H]2CC[C@@]34C=C[C@@](CO)(CC[C@H]3[C@]2(C)CC[C@H]1O)C4`: the GI50 in the assay on COLO 205 is 26.4 µM (inactive); in the assay on ACHN, 31.9 µM (inactive); with CAKI-1 it was 30.9 µM (inactive); in the assay with OVCAR-5, > 100 µM (inactive); in the assay with NCI/ADR-RES, 27.3 µM (inactive); in the assay on NCI-H522 it was 64.4 µM (inactive). The GI50 in the assay on LOX IMVI is 48.4 µM (inactive); in the assay on UO-31, 35.4 µM (inactive); in the assay with SN12C, > 100 µM (inactive); with MDA-MB-435, 77.6 µM (inactive); in the assay on DU-145 it was 42.2 µM (inactive); in the assay on SK-OV-3 it was 38.6 µM (inactive). Moreover, the GI50 in the assay on SW-620 is > 100 µM (inactive); in the assay with MDA-MB-231, 28.2 µM (inactive); with OVCAR-3, > 100 µM (inactive); in the assay on CCRF-CEM, > 100 µM (inactive); in the assay with SF-268, 47.3 µM (inactive); in the assay on SF-295, 57.9 µM (inactive).

Turning to `OC1CN=C2c3ccccc3C(O)(c3ccc(Cl)cc3)N2C1` (stereo not drawn), the GI50 in the assay on K562 was 35.6 µM (inactive); with COLO 205 it was 19.5 µM (inactive); in the assay with ACHN, > 100 µM (inactive); with CAKI-1, > 100 µM (inactive); in the assay with OVCAR-5 it was 27 µM (inactive); with NCI/ADR-RES it was > 100 µM (inactive). Besides, the GI50 in the assay on NCI-H522 is 26.2 µM (inactive); with LOX IMVI, 45.4 µM (inactive); with UO-31 it was 37.4 µM (inactive); with SN12C, 57.7 µM (inactive); in the assay with MDA-MB-435, 65.8 µM (inactive); in the assay on DU-145 it was > 100 µM (inactive). The GI50 in the assay with SK-OV-3 was 69.5 µM (inactive); with SW-620, > 100 µM (inactive); in the assay on MDA-MB-231 it was 57.8 µM (inactive); in the assay on OVCAR-3, > 100 µM (inactive); in the assay on CCRF-CEM it was 36.7 µM (inactive); with SF-268, 32 µM (inactive).

The record behind these values is ChEMBL document CHEMBL1201862, “PubChem BioAssay data set” (2004).
